Laboratory results taken from PMC9502754, “Novel Effective Fluorinated Benzothiophene-Indole Hybrid Antibacterials against S. aureus and MRSA Strains” (Pharmaceuticals, 2022).

target: T1, MRSA pyruvate kinase (PK) (Staphylococcus aureus, UniProt Q2FG40); assay: Kinase-Glo luminescence assay of ATP formed by purified PK from PEP and ADP; assay type: biochemical
T1 construct: gene pyk; His-tagged MRSA PK from S. aureus USA300 LAC *, pET-28a, expressed in E. coli
T1 sequence (Q2FG40 1-585): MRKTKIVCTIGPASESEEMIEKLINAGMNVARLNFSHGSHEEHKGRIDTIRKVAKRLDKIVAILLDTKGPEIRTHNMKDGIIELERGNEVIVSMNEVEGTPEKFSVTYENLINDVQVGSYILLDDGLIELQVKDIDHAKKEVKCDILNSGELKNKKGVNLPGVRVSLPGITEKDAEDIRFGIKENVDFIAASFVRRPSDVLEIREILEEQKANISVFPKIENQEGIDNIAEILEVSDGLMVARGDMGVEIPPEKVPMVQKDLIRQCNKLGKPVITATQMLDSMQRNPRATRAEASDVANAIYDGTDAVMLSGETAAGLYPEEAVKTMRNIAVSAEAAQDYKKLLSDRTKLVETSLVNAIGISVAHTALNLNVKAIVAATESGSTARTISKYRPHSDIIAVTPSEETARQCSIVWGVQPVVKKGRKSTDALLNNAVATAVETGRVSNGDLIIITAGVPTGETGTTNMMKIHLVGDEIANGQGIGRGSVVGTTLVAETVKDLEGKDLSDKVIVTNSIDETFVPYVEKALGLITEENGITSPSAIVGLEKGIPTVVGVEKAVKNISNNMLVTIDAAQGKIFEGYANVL

| SMILES | IC50 |
| --- | --- |
| Oc1ccc2c(-c3c4cc(F)sc4cc4[nH]c5cc(O)ccc5c34)c[nH]c2c1 [3c, 2-Fluoro-4-(6-hydroxy-1H-indol-3-yl)-9H-thieno[2,3-b]carbazol-7-ol] | 1.6 µM |
| Fc1cc2c(-c3c[nH]c4ccc(Cl)cc34)c3c(cc2s1)[nH]c1ccc(Cl)cc13 [3f, 6-Chloro-4-(5-chloro-1H-indol-3-yl)-2-fluoro-9H-thieno[2,3-b]carbazole] | 2.1 µM |
| Fc1cc2cc3[nH]c4cc(Cl)ccc4c3c(-c3c[nH]c4cc(Cl)ccc34)c2s1 [4f, 7-Chloro-10-(6-chloro-1H-indol-3-yl)-2-fluoro-5H-thieno[3,2-b]carbazole] | 2.3 µM |
| Fc1cc2c(-c3c[nH]c4ccc(Br)cc34)c3[nH]c4ccc(Br)cc4c3cc2s1 [6d, 8-Bromo-4-(5-bromo-1H-indol-3-yl)-2-fluoro-5H-thieno[3,2-b]carbazole] | 3.5 µM |
